Data from ChEMBL document CHEMBL1156599, “Nordihydroguaiaretic acid autoxidation produces a schisandrin-like dibenzocyclooctadiene lignan” (J Nat Prod, 2008).

Experiment: Stability assessed as half life at pH 7.4
Format: physicochemical
Settings: buffer

- half-life: 3 h
Compound: CC(Cc1ccc(O)c(O)c1)C(C)Cc1ccc(O)c(O)c1 (stereo unspecified) [NORDIHYDROGUAIARETIC ACID]
